Data reported in paper PMC5918173, “Characterization of Transglutaminase 2 activity inhibitors in monocytes in vitro and their effect in a mouse model for multiple sclerosis” (PLoS ONE, 2018).

How the values were obtained:
[1] = biological target: T1, TG2-fibronectin (FN42) interaction (Homo sapiens, UniProt P21980); assay: TG2 interaction with fibronectin (FN42) ELISA; format: binding; settings: 5 and 15 μM, with or without 1 mM CaCl2, Fig 2E, 2F
T1 construct: purchased Zedira
T1 sequence (P21980 1-687): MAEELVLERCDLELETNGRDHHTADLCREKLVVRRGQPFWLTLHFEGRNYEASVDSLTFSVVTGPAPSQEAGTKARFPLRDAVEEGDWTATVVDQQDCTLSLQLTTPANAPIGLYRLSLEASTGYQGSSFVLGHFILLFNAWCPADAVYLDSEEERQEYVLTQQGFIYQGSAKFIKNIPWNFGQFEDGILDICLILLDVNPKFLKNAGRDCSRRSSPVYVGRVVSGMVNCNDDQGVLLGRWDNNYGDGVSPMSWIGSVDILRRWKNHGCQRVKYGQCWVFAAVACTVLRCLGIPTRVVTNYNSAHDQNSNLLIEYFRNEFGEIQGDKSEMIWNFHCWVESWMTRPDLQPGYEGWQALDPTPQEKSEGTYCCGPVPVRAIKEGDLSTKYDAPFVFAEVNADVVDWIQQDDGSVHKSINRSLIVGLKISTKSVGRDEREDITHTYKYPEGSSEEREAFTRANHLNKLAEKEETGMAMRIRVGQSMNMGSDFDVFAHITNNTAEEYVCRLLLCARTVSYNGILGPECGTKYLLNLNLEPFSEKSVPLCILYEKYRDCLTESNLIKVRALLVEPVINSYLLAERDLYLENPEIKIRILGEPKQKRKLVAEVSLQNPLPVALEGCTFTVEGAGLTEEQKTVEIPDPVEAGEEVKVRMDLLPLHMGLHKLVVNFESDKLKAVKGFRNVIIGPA
Description: To determine the potential effect of BJJF078 and ERW1041E on the interaction of TG2 with fibronectin, ELISA experiments were performed as described previously. Briefly, 96 well ELISA plates (Nunc, Maxisorp) were coated with 100 μg/ml mouse anti his-tag monoclonal antibody (Roche) in PBS at 4°C overnight. This was followed by simultaneous washing and blocking with 0.5% BSA in PBS (3x 10 min). Per well 50 μl of a 10 nM human recombinant TG2 (his-tagged, Zedira) solution in PBS was added. Into each well (triplicates) either DMSO (control, 1% final concentration) or TG2 inhibitors (BJJF078, ERW1041E, final concentration 5 and 15 μM in 1% DMSO) were added. As a positive control similar concentrations of TG53, a small molecule that inhibits the interaction between TG2 and fibronectin was added (kindly provided by Prof D. Matei, Northwestern University, Chicago, USA). […] After 1 h incubation at RT, 50 μl of 10 nM FN42-biotin solution (kindly provided by Prof D. Matei) was added to the wells. After an additional 1 h incubation at RT and washing steps (3x 10 min) with 0.5% BSA in PBS, 100 μl streptavidin-HRPO conjugate (from kit opr001, Covalab) was added and incubated for 1 h at RT. This was followed by another series of washes and the colour reaction started with 100 μl of 3,3′,5,5′ tetramethylbenzidine substrate (TMB, from kit opr001, Covalab). After sufficient colour development (15 min), the reaction was stopped with 1M HCl and absorbance was measured at 450 nm.

[2] = biological target: T2, recombinant human TG2 (hTG2) (Homo sapiens, UniProt P21980); assay: Inhibition of recombinant Transglutaminase activity (fluorescent substrate), human TG2; format: biochemical; settings: recombinant human TG2, Fig 2A
T2 construct: purchased Zedira
T2 sequence (P21980 1-687): T1 sequence (P21980 1-687)
Description: The potency and specificity of TG2 inhibitors was assessed with various recombinant TGs, as previously described. The reaction buffer (50 mM Tris, 100 mM NaCl, 10 mM CaCl2, 5 mM H-Gly-OMe*HCl (glycinemethylestherhydrochloride, Sigma), 5 mM hexadimethinbromide (Sigma), 9.1 mM DTT, pH 7.5) was heated to 37°C in a 96 well plate. Then 50 μM of the TG substrate Abz-NE(CAD-DNP)EQVSPLTLLK-OH (Zedira) was added. 1 μg/ml recombinant TG (human TG1, human (hTG2) / mouse TG2 (mTG2) or human Factor XIII (FXIII); Zedira) were added. The two lyophilized TG2 inhibitors (see Fig 1 for chemical structure) BJJF078 (3,4-Dimethoxy-N-(5-[4-(acryloylamino)piperidine-1-sulfonyl]-naphthalen-1-yl)-benzamide, kindly provided by Dr S. El Alaoui, Covalab, France) and ERW1041E (2-[(3-Bromo-4,5-dihydro-isoxazol-5-ylmethyl)-carbamoyl]-pyrrolidine-1—carboxylic acid quinolin-3-ylmethyl ester, kindly provided by Prof C. Khosla, Stanford University, USA) were dissolved in DMSO (stock solution: 54 mM) and stored at -80°C. These stocks were further diluted and various concentrations of the TG2 inhibitors (0.3 nM to 100 μM), were added to the wells (final DMSO concentration per well: 0.06%). The relative increase in fluorescence emission, correlating with enzymatic activity, was measured over 4 h with a fluorimeter (Excitation: 320nm, emission: 405 nm; Fluostar, GMB).

[3] = tested on: inflammatory cells in spinal cord of EAE mice; assay: Immunohistochemistry of cell infiltrates (CD45, CD68, CD3) in spinal cord of EAE mice; format: in vivo, mouse; parameters: key to CD45 (average) / CD68 (average): -: no positive cells; +: few positive cells; ++: intermediate amounts of positive cells; +++: high amounts of cells/ cellular clusters; settings: for CD3 range / CD45 (average) / CD45 range / CD68 (average) / CD68 range: spinal cord of EAE mice, semi-quantitative, 3 sections per animal; for relative amount of inflammatory cells (CD45, CD68, CD3) in spinal cord: visual inspection or semi-quantification, versus vehicle
Description: Immunohistochemical staining was performed on cervical, thoracic and lumbar spinal cord sections from EAE mice treated with vehicle, BJJF078 or ERW1041E. The sections were brought back to room temperature and fixed with acetone for 10 min.
For single immunohistochemical stainings (CD3, CD45, CD68), endogenous peroxidase activity was blocked for 15 min with 0.3% hydrogen peroxide and 0.1% sodium azide in TBS. […] The sections were incubated with primary antibodies (Table 1) at 4°C overnight. After subsequent 2 h incubation with appropriate biotinylated IgGs (1/400, Jackson), the procedure was continued with a 1 h incubation with HRP-labelled avidin-biotin complex (ABC complex 1:400, Vector ABC elite kit, Vector laboratories) and the protocol was followed as described for the in situ TG activity staining above. Semi-quantitative analysis of cellular infiltrates per cell type was performed by unbiased manual evaluation of stained lesion areas per spinal cord section.

| effect on binding of TG2 to fibronectin (FN42) [1] | IC50 [2] [nM] | Compound | CD3 range [3] | CD45 (average) [3] | CD45 range [3] | CD68 (average) [3] | CD68 range [3] | relative amount of inflammatory cells (CD45, CD68, CD3) in spinal cord [3] |
| --- | --- | --- | --- | --- | --- | --- | --- | --- |
| did not interfere | 41 | C=CC(=O)NC1CCN(S(=O)(=O)c2cccc3c(NC(=O)c4ccc(OC)c(OC)c4)cccc23)CC1 [BJJF078, 3,4-Dimethoxy-N-(5-[4-(acryloylamino)piperidine-1-sulfonyl]-naphthalen-1-yl)-benzamide] | - to + | ++ | + to +++ | ++ | - to +++ | not affected |
| did not interfere | 1600 | O=C(NCC1CC(Br)=NO1)C1CCCN1C(=O)OCc1cnc2ccccc2c1 (stereo not shown) [ERW1041E, 2-[(3-Bromo-4,5-dihydro-isoxazol-5-ylmethyl)-carbamoyl]-pyrrolidine-1—carboxylic acid quinolin-3-ylmethyl ester] | - to + | ++ | + to +++ | ++ | - to +++ | not affected |
